Reference: US9447028B2, “Therapeutic aryl-amido-aryl compounds and their use” (King's College London, priority 2009, dated 2016)

Columns and labels:
Assay type in all cases: cell-based
RARβ = molecular target: T1, RARβ (Homo sapiens, UniProt P10826); assay: Transactivation assay for RAR beta (gal4-RAR fusion, luciferase reporter, COS-7 cells); settings: ratio of test compound EC50 to that of atRA; inactive = no agonist action at the highest concentration tested
T1 construct: gal4 (fusion partner); expressed in transfected cells; host or cells: COS-7
T1 sequence (P10826 183-417 limits assumed): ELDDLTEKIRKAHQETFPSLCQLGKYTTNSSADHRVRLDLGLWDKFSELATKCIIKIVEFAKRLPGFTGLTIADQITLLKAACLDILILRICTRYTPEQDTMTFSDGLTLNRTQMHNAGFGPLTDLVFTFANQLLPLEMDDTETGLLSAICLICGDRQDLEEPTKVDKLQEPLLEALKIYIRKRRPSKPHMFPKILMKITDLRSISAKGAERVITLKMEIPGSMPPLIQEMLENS
How it was run: (§1)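 COS-7 cells co-transfected with gal4–RAR ligand-binding-domain fusion and pFR-luc reporter, then treated with compound in phenol-red-free DMEM (1% DMSO) for about one day. Luciferase read after lysis with BrightGlo; EC50 values from replicate experiments given as a ratio of means.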

RARα = molecular target: T2, RARα (Homo sapiens, UniProt P10276); assay: Transactivation assay for RAR alpha (gal4-RAR fusion, luciferase reporter, COS-7 cells); settings: for RARα/RARβ ratio (*): fold-selectivity for RARα over RARβ; for RARα activity ratio: ratio of test compound EC50 to that of atRA on the same plate
T2 construct: gal4 (fusion partner); expressed in transfected cells; host or cells: COS-7
T2 sequence (P10276 183-417 limits assumed): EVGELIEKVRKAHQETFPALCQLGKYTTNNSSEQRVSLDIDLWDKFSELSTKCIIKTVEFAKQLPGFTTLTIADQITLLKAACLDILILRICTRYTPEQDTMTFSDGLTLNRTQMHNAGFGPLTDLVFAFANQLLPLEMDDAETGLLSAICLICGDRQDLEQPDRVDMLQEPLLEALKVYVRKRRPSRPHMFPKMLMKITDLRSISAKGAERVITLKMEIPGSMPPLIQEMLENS
How it was run: as §1

RARγ = molecular target: T3, RARγ (Homo sapiens, UniProt P13631); assay: Transactivation assay for RAR gamma (gal4-RAR fusion, luciferase reporter, COS-7 cells); settings: ratio of test compound EC50 to that of atRA; inactive = no agonist action at the highest concentration tested
T3 construct: gal4 (fusion partner); expressed in transfected cells; host or cells: COS-7
T3 sequence (P13631 185-419 limits assumed): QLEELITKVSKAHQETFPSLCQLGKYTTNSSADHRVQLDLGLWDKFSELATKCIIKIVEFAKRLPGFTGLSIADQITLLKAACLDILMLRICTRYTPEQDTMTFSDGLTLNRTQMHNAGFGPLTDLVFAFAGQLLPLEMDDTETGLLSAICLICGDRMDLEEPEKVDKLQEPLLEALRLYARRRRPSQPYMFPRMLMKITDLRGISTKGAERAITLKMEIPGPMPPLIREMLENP
How it was run: as §1

RARβ activity ratio (RARβ)	RARα/RARβ ratio (*) (RARα)	RARα activity ratio (RARα)	RARγ activity ratio (RARγ)	increase in RARα activity (RARα; compared with XXX-02)	Structure (SMILES)
57	21	2.6	583		CCC(CC)Oc1cc(C(=O)Nc2ccc(C(=O)O)c(F)c2)cc(Cl)c1OC [AAA-103, 4-(3-Chloro-4-methoxy-5-(pentan-3-yloxy)benzamido)-2-fluorobenzoic acid]
7	3.1	2.1	1203		CCOc1cc(C(=O)Nc2ccc(C(=O)O)cc2)cc(Cl)c1OC(C)C [AAA-086, 4-(3-Chloro-5-ethoxy-4-isopropoxybenzamido)benzoic acid]
536	487	1.1	6786		CCOc1c(Cl)cc(C(=O)Nc2ccc(C(=O)O)c(F)c2)cc1OC(C)C [AAA-079, 4-(3-Chloro-4-ethoxy-5-isopropoxybenzamido)-2-fluorobenzoic acid]
151	58	2.6	100000		CCOc1c(Cl)cc(C(=O)Nc2ccc(C(=O)O)c(C)c2)cc1OCC1CC1 [AAA-097, 4-(3-Chloro-5-(cyclopropylmethoxy)-4-ethoxybenzamido)-2-methylbenzoic acid]
510	392	1.3	2647		CCOc1c(Cl)cc(C(=O)Nc2ccc(C(=O)O)cc2)cc1OCC1CC1 [AAA-089, 4-(3-Chloro-5-(cyclopropylmethoxy)-4-ethoxybenzamido)benzoic acid]
505	421	1.2	3380		CC(C)Oc1c(Cl)cc(C(=O)Nc2ccc(C(=O)O)c(F)c2)cc1C(F)(F)F [AAA-069, 4-(3-Chloro-4-isopropoxy-5-(trifluoromethyl)benzamido)-2-fluorobenzoic acid]
121	43	2.8	698		Cc1cc(NC(=O)c2cc(Cl)c(OC3CCCC3)c(OC3CCCC3)c2)ccc1C(=O)O [AAA-046, 4-(3-Chloro-4,5-bis(cyclopentyloxy)benzamido)-2-methylbenzoic acid]
1453	161	9.0	>27000		CCOc1c(Cl)cc(C(=O)Nc2ccc(C(=O)O)c(O)c2)cc1OC(C)C [AAA-081, 4-(3-Chloro-4-ethoxy-5-isopropoxybenzamido)-2-hydroxybenzoic acid]
238	44	5.4	31340		COc1c(Cl)cc(C(=O)Nc2ccc(C(=O)O)c(C)c2)cc1C(F)(F)F [AAA-041, 4-(3-Chloro-4-methoxy-5-(trifluoromethyl)benzamido)-2-methylbenzoic acid]
2245	34	66	2326		CCOc1cc(C(=O)Nc2ccc(C(=O)O)cc2)cc(OCC)c1Br [AAA-106, 4-(4-Bromo-3,5-diethoxybenzamido)benzoic acid]
73	33	2.2	833		CCC(CC)Oc1cc(C(=O)Nc2ccc(C(=O)O)c(C)c2)cc(Cl)c1OC [AAA-102, 4-(3-Chloro-4-methoxy-5-(pentan-3-yloxy)benzamido)-2-methylbenzoic acid]
4082	609	6.7	117857		COc1c(Cl)cc(C(=O)Nc2ccc(C(=O)O)c(F)c2)cc1OC(C)C [AAA-077, 4-(3-Chloro-5-isopropoxy-4-methoxybenzamido)-2-fluorobenzoic acid]
177	59	3.0	2985		CCOc1c(Cl)cc(C(=O)Nc2ccc(C(=O)O)c(C)c2)cc1C(F)(F)F [AAA-039, 4-(3-Chloro-4-ethoxy-5-(trifluoromethyl)benzamido)-2-methylbenzoic acid]
2620	8700	0.30	87000		COc1c(Cl)cc(C(=O)Nc2ccc(C(=O)O)cc2)cc1C(F)(F)F [AAA-035, 4-(3-Chloro-4-methoxy-5-(trifluoromethyl)benzamido)benzoic acid]
642	7.1	90	inactive		O=C(O)c1ccc(NC(=O)c2cc(Cl)cc(Cl)c2)cc1 [XXX-03, 4-(3,5-Dichlorobenzamido)benzoic acid, reference compound]
244	122	2	1250		CC(C)Oc1c(Cl)cc(C(=O)Nc2ccc(C(=O)O)cc2)cc1C(F)(F)F [AAA-034, 4-(3-Chloro-4-isopropoxy-5-(trifluoromethyl)benzamido)benzoic acid]
100	23	4.4	22759		CCOc1cc(C(=O)Nc2ccc(C(=O)O)cc2)cc(OC(CC)CC)c1Cl [AAA-114, 4-(4-Chloro-3-ethoxy-5-(pentan-3-yloxy)benzamido)benzoic acid]
53	27	2	1059		O=C(O)c1ccc(NC(=O)c2cc(Cl)c(OC3CCC3)c(OC3CCC3)c2)cc1 [AAA-092, 4-(3-Chloro-4,5-di(cyclobutyloxy)benzamido)benzoic acid]
2000	286	7	11725		CCOc1cc(C(=O)Nc2ccc(C(=O)O)c(C)c2)cc(Cl)c1OC(C)C [AAA-087, 4-(3-Chloro-5-ethoxy-4-isopropoxybenzamido)-2-methylbenzoic acid]
900	231	3.9	11093		Cc1cc(NC(=O)c2cc(Cl)c(Cl)c(OC(C)C)c2)ccc1C(=O)O [AAA-113, 4-(3,4-Dichloro-5-isopropoxybenzamido)-2-methylbenzoic acid]
6923	210	33	>8300		CCOc1c(Cl)cc(C(=O)Nc2ccc(C(=O)O)c(C)c2)cc1OC [AAA-085, 4-(3-Chloro-4-ethoxy-5-methoxybenzamido)-2-methylbenzoic acid]
53	27	2	688		O=C(O)c1ccc(NC(=O)c2cc(Cl)c(OC3CCCC3)c(C(F)(F)F)c2)cc1 [AAA-043, 4-(3-Chloro-4-(cyclopentyloxy)-5-(trifluoromethyl)benzamido)benzoic acid]
8.4	13	0.66	941		COc1c(Cl)cc(C(=O)Nc2ccc(C(=O)O)cc2)cc1OCC(C)(C)C [AAA-105, 4-(3-Chloro-4-methoxy-5-(neopentyloxy)benzamido)benzoic acid]
9660	64.0	151	inactive		CCOc1c(Cl)cc(C(=O)Nc2ccc(C(=O)O)c(Cl)c2)cc1Cl [AAA-018, 2-Chloro-4-(3,5-dichloro-4-ethoxybenzamido)benzoic acid]
inactive	>50	448	inactive	5 fold	CCOc1c(Cl)cc(C(=O)Nc2cc(F)c(C(=O)O)c(F)c2)cc1C(F)(F)F [AAA-022, 4-(3-Chloro-4-ethoxy-5-(trifluoromethyl)benzamido)-2,6-difluorobenzoic acid]

Structure (SMILES)	RARβ activity ratio (RARβ)	RARα/RARβ ratio (*) (RARα)	RARα activity ratio (RARα)	RARγ activity ratio (RARγ)	increase in RARα activity (RARα; compared with XXX-02)
CC(C)(C)Oc1c(Cl)cc(C(=O)Nc2ccc(C(=O)O)cc2)cc1C(F)(F)F [AAA-037, 4-(4-(tert-Butoxy)-3-chloro-5-(trifluoromethyl)benzamido)benzoic acid]	324	1300	0.25	>2600	
